Legend:
P2X7-2Nβ 73–79 deletion = molecular target: T1, P2X7-2Nβ 73–79 deletion (Homo sapiens, UniProt Q99572, DEL73-79/I21V/M24R/N16P/N25R/Q22R/R20V/S23N/T19I/Y26L); design: method as in Allsopp et al., 2017; conditions: ref Allsopp et al., 2017; cited from earlier work
T1 construct: expressed in transfected cells; host or cells: Xenopus laevis oocytes (cRNA injection)
T1 sequence (Q99572 with tags, fused parts or gaps N16P/T19I/R20V/I21V/Q22R/S23N/M24R/N25R/Y26L/DEL73-79): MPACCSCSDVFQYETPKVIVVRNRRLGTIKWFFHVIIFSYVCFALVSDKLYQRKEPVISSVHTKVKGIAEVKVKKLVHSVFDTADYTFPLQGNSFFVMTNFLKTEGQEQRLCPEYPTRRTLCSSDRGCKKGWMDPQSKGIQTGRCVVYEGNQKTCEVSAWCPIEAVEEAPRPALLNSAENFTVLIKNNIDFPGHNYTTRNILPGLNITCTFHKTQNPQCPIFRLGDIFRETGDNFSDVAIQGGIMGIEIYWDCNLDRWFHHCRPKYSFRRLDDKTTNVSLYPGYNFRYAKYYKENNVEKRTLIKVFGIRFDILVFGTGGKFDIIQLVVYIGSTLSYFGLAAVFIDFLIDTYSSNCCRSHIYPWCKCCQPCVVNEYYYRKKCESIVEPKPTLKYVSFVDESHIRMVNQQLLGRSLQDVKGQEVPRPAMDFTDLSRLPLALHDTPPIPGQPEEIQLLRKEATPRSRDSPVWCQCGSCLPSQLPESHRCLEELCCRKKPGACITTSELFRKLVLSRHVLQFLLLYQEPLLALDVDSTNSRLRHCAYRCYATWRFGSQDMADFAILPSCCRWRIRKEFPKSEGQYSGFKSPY

[1] = system: chimeric P2X7/1 receptor 295–310; assay: cell-based; format: cell-based, human; conditions: chimera 295–310
Description: Additional point mutants were made using the QuikChange mutagenesis kit (Stratagene California, La Jolla, CA). The production of the correct mutations and absence of coding errors was determined by DNA sequencing (Automated ABI Sequencing Service, University of Leicester, UK). cRNA was generated for the mutants and 50 nl (50 ng) was injected into manually defoliculated stage V Xenopus laevis oocytes using an Inject+Matic microinjector (J.A. Gabay, Inject+Matic, Geneva, Switzerland). Injected oocytes were stored at 16°C in ND96 buffer [in millimolar concentrations, NaCl 96, KCl 2, CaCl2 1.8, MgCl2 1, sodium pyruvate 5, and HEPES 5 (pH 7.6) supplemented with 50 μg/ml gentamycin and 50 μg/ml tetracycline]. Three to seven days postinjection two-electrode voltage clamp recordings were made from oocytes bathed in divalent-free ND96 buffer (in millimolar concentrations, NaCl 96, KCl 2, sodium pyruvate 5, HEPES 5, and 0.1 flufenamic acid, pH 7.6). Oocytes were voltage clamped at a holding potential of −60 mV with a GeneClamp500B amplifier (Molecular Devices).
Inhibition by the antagonists was expressed as the percentage of the peak current amplitude of an EC90 concentration of ATP recorded before the application of antagonist (ATP gave reproducible responses to ATP in the absence of antagonist). Inhibition curves were fitted with the Hill equation (variable slope) using GraphPad Prism 6 (GraphPad Software, San Diego, CA). […] Individual concentration-response curves were generated for individual experiments, and statistical analysis was carried out on the data generated. […] Data are shown as mean ± S.E.M. In all cases n ≥ 3 for all data points.

P2X7R point mutant L97P = molecular target: T2, P2X7R point mutant L97P (Homo sapiens, UniProt Q99572, I21V/L97P/M24R/N16P/N25R/Q22R/R20V/S23N/T19I/Y26L); assay: cell-based
T2 construct: expressed in transfected cells; host or cells: Xenopus laevis oocytes (cRNA injection)
T2 sequence (Q99572 whole entry N16P/T19I/R20V/I21V/Q22R/S23N/M24R/N25R/Y26L/L97P): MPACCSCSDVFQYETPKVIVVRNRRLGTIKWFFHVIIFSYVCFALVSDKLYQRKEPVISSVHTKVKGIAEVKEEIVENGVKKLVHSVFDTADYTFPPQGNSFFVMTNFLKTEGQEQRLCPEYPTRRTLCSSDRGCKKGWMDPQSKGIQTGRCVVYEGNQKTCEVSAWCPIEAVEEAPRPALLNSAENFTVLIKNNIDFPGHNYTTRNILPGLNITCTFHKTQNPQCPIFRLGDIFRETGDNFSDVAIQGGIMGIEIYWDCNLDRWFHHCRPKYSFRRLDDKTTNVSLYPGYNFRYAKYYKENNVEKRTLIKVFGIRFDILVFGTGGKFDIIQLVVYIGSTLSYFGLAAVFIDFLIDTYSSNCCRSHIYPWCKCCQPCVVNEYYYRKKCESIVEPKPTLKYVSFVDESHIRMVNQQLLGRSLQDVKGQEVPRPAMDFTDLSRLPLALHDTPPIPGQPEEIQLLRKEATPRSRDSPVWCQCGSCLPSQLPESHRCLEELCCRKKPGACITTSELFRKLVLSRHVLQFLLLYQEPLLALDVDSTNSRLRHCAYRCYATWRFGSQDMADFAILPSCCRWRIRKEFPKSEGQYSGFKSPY
Description: (§1) The production of the correct mutations and absence of coding errors was determined by DNA sequencing (Automated ABI Sequencing Service, University of Leicester, UK). cRNA was generated for the mutants and 50 nl (50 ng) was injected into manually defoliculated stage V Xenopus laevis oocytes using an Inject+Matic microinjector (J.A. Gabay, Inject+Matic, Geneva, Switzerland). Injected oocytes were stored at 16°C in ND96 buffer [in millimolar concentrations, NaCl 96, KCl 2, CaCl2 1.8, MgCl2 1, sodium pyruvate 5, and HEPES 5 (pH 7.6) supplemented with 50 μg/ml gentamycin and 50 μg/ml tetracycline]. Three to seven days postinjection two-electrode voltage clamp recordings were made from oocytes bathed in divalent-free ND96 buffer (in millimolar concentrations, NaCl 96, KCl 2, sodium pyruvate 5, HEPES 5, and 0.1 flufenamic acid, pH 7.6). Oocytes were voltage clamped at a holding potential of −60 mV with a GeneClamp500B amplifier (Molecular Devices).
(§2) Inhibition by the antagonists was expressed as the percentage of the peak current amplitude of an EC90 concentration of ATP recorded before the application of antagonist (ATP gave reproducible responses to ATP in the absence of antagonist). Inhibition curves were fitted with the Hill equation (variable slope) using GraphPad Prism 6 (GraphPad Software, San Diego, CA). […]

[2] = system: P2X7R left flipper point mutant T282A; assay: Two-electrode voltage clamp of ATP-evoked currents in Xenopus oocytes; format: cell-based, human
Description: as §1, §2

Cl.Cl.O=C(CC12CC3CC(CC(C3)C1)C2)Nc1cccc2nc(NCCNCCO)ccc12 [AZ10606120, N-[2-[[2-[(2-hydroxyethyl)amino]ethyl]amino]-5-quinolinyl]-2-tricyclo[3.3.1.13,7]dec-1-ylacetamide dihydrochloride]
fold decrease in antagonist sensitivity (P2X7-2Nβ 73–79 deletion): 40 fold

COc1ccc(CC(=O)NC(N=C(NC#N)Nc2cccc3ncccc23)C(C)(C)C)cc1OC (stereo not shown) [A740003, N-[1-[[(cyanoamino)(5-quinolinylamino)methylene]amino]-2,2-dimethylpropyl]-3,4-dimethoxybenzeneacetamide]
fold decrease in antagonist sensitivity relative to P2X7-2Nβ [1]: ~5 fold
IC50 (P2X7R point mutant L97P): 398 nM
effect on antagonist sensitivity relative to P2X7-2Nβ [2]: no effect
